# Measurements from ChEMBL document CHEMBL1133337, “Synthesis and transfection properties of novel non-toxic monocationic lipids. Variation of lipid anchor, spacer and head group structure” (2000).
# Assays:
# Type in all cases: functional, Cercopithecidae
# COS-7 [1] = assay: Transfection efficiency when the compound/DNA charge ratio was 11:1
# COS-7 [2] = assay: Transfection efficiency when the compound/DNA charge ratio was 13:1
# COS-7 [3] = assay: Transfection efficiency when the compound/DNA charge ratio was 15:1
# COS-7 [4] = assay: Transfection efficiency when the compound/DNA charge ratio was 1:1
# COS-7 [5] = assay: Transfection efficiency when the compound/DNA charge ratio was 3:1
# COS-7 [6] = assay: Transfection efficiency when the compound/DNA charge ratio was 5:1
# COS-7 [7] = assay: Transfection efficiency when the compound/DNA charge ratio was 9:1
# COS-7 [8] = assay: Transfection efficiency when the compound/DNA charge ratio was 7:1
structure (smiles),measurement,setting,value
CC(C)CCCC(C)[C@H]1CC[C@H]2C3CC=C4C[C@@H](OC(=O)C[N+](C)(C)CCO)CCC4(C)[C@H]3CCC12C (stereo partly specified),Transfection efficiency,COS-7 [1],31100 RLU (ug of protein)-1
same,Transfection efficiency,COS-7 [2],30000 RLU (ug of protein)-1
same,Transfection efficiency,COS-7 [3],31000 RLU (ug of protein)-1
same,Transfection efficiency,COS-7 [4],4300 RLU (ug of protein)-1
same,Transfection efficiency,COS-7 [5],4800 RLU (ug of protein)-1
same,Transfection efficiency,COS-7 [6],18500 RLU (ug of protein)-1
same,Transfection efficiency,COS-7 [7],29600 RLU (ug of protein)-1
same,Transfection efficiency,COS-7 [8],26500 RLU (ug of protein)-1
CC(C)CCCC(C)[C@H]1CC[C@H]2C3CC=C4C[C@@H](OC(=O)OCC[N+](C)(C)C)CCC4(C)[C@H]3CCC12C (stereo partly specified),Transfection efficiency,COS-7 [1],3600 RLU (ug of protein)-1
same,Transfection efficiency,COS-7 [2],2200 RLU (ug of protein)-1
same,Transfection efficiency,COS-7 [3],2000 RLU (ug of protein)-1
same,Transfection efficiency,COS-7 [4],48500 RLU (ug of protein)-1
same,Transfection efficiency,COS-7 [5],97200 RLU (ug of protein)-1
same,Transfection efficiency,COS-7 [6],77200 RLU (ug of protein)-1
same,Transfection efficiency,COS-7 [7],11400 RLU (ug of protein)-1
same,Transfection efficiency,COS-7 [8],45400 RLU (ug of protein)-1
CC(C)CCCC(C)[C@H]1CC[C@H]2C3CC=C4C[C@@H](OC(=O)CCC(=O)OCCN(C)C)CCC4(C)[C@H]3CCC12C (stereo partly specified),Transfection efficiency,COS-7 [1],7500 RLU (ug of protein)-1
same,Transfection efficiency,COS-7 [2],7200 RLU (ug of protein)-1
same,Transfection efficiency,COS-7 [3],6700 RLU (ug of protein)-1
same,Transfection efficiency,COS-7 [4],14000 RLU (ug of protein)-1
same,Transfection efficiency,COS-7 [5],27000 RLU (ug of protein)-1
same,Transfection efficiency,COS-7 [6],12200 RLU (ug of protein)-1
same,Transfection efficiency,COS-7 [7],9600 RLU (ug of protein)-1
same,Transfection efficiency,COS-7 [8],10600 RLU (ug of protein)-1
CCCCCCCCCCCCCCOCC(COC(=O)C[N+](C)(C)C)OCCCCCCCCCCCCCC (stereo unspecified),Transfection efficiency,COS-7 [1],18700 RLU (ug of protein)-1
same,Transfection efficiency,COS-7 [2],29400 RLU (ug of protein)-1
same,Transfection efficiency,COS-7 [3],31400 RLU (ug of protein)-1
same,Transfection efficiency,COS-7 [4],4200 RLU (ug of protein)-1
same,Transfection efficiency,COS-7 [5],4100 RLU (ug of protein)-1
same,Transfection efficiency,COS-7 [6],10000 RLU (ug of protein)-1
same,Transfection efficiency,COS-7 [7],17700 RLU (ug of protein)-1
same,Transfection efficiency,COS-7 [8],15100 RLU (ug of protein)-1
CC(C)CCCC(C)[C@H]1CC[C@H]2C3CC=C4C[C@@H](OC(=O)CCC(=O)OCCCN(C)C)CCC4(C)[C@H]3CCC12C (stereo partly specified),Transfection efficiency,COS-7 [1],6000 RLU (ug of protein)-1
same,Transfection efficiency,COS-7 [2],6100 RLU (ug of protein)-1
same,Transfection efficiency,COS-7 [3],4700 RLU (ug of protein)-1
same,Transfection efficiency,COS-7 [4],8000 RLU (ug of protein)-1
same,Transfection efficiency,COS-7 [5],9200 RLU (ug of protein)-1
same,Transfection efficiency,COS-7 [6],9200 RLU (ug of protein)-1
same,Transfection efficiency,COS-7 [7],9100 RLU (ug of protein)-1
same,Transfection efficiency,COS-7 [8],8900 RLU (ug of protein)-1
CC(C)CCCC(C)[C@H]1CC[C@H]2C3CC=C4C[C@@H](OC(=O)OCCN(C)C)CCC4(C)[C@H]3CCC12C (stereo partly specified),Transfection efficiency,COS-7 [1],15200 RLU (ug of protein)-1
same,Transfection efficiency,COS-7 [2],10900 RLU (ug of protein)-1
same,Transfection efficiency,COS-7 [3],7400 RLU (ug of protein)-1
same,Transfection efficiency,COS-7 [4],40500 RLU (ug of protein)-1
same,Transfection efficiency,COS-7 [5],93000 RLU (ug of protein)-1
same,Transfection efficiency,COS-7 [6],76600 RLU (ug of protein)-1
same,Transfection efficiency,COS-7 [7],24800 RLU (ug of protein)-1
same,Transfection efficiency,COS-7 [8],41800 RLU (ug of protein)-1
CC(C)CCCC(C)[C@H]1CC[C@H]2C3CC=C4C[C@@H](OC(=O)CCC(=O)NCCCN(C)C)CCC4(C)[C@H]3CCC12C (stereo partly specified),Transfection efficiency,COS-7 [1],8800 RLU (ug of protein)-1
same,Transfection efficiency,COS-7 [2],7900 RLU (ug of protein)-1
same,Transfection efficiency,COS-7 [3],8000 RLU (ug of protein)-1
same,Transfection efficiency,COS-7 [4],12800 RLU (ug of protein)-1
same,Transfection efficiency,COS-7 [5],37300 RLU (ug of protein)-1
same,Transfection efficiency,COS-7 [6],22500 RLU (ug of protein)-1
same,Transfection efficiency,COS-7 [7],9800 RLU (ug of protein)-1
same,Transfection efficiency,COS-7 [8],14800 RLU (ug of protein)-1
CC(C)CCCC(C)[C@H]1CC[C@H]2C3CC=C4C[C@@H](OC(=O)OCC[N+](C)(C)CCO)CCC4(C)[C@H]3CCC12C (stereo partly specified),Transfection efficiency,COS-7 [1],8100 RLU (ug of protein)-1
same,Transfection efficiency,COS-7 [2],5000 RLU (ug of protein)-1
same,Transfection efficiency,COS-7 [3],5300 RLU (ug of protein)-1
same,Transfection efficiency,COS-7 [4],17300 RLU (ug of protein)-1
same,Transfection efficiency,COS-7 [5],83200 RLU (ug of protein)-1
same,Transfection efficiency,COS-7 [6],25500 RLU (ug of protein)-1
same,Transfection efficiency,COS-7 [7],8700 RLU (ug of protein)-1
same,Transfection efficiency,COS-7 [8],10500 RLU (ug of protein)-1
CC(C)CCCC(C)[C@H]1CC[C@H]2C3CC=C4C[C@@H](OC(=O)C[N+](C)(C)C)CCC4(C)[C@H]3CCC12C (stereo partly specified),Transfection efficiency,COS-7 [1],2800 RLU (ug of protein)-1
same,Transfection efficiency,COS-7 [2],2000 RLU (ug of protein)-1
same,Transfection efficiency,COS-7 [3],1700 RLU (ug of protein)-1
same,Transfection efficiency,COS-7 [4],17000 RLU (ug of protein)-1
same,Transfection efficiency,COS-7 [5],86600 RLU (ug of protein)-1
same,Transfection efficiency,COS-7 [6],20100 RLU (ug of protein)-1
same,Transfection efficiency,COS-7 [7],4300 RLU (ug of protein)-1
same,Transfection efficiency,COS-7 [8],5300 RLU (ug of protein)-1
CC(C)CCCC(C)[C@H]1CC[C@H]2C3CC=C4C[C@@H](OC(=O)CCC(=O)NCCN(C)C)CCC4(C)[C@H]3CCC12C (stereo partly specified),Transfection efficiency,COS-7 [1],75400 RLU (ug of protein)-1
same,Transfection efficiency,COS-7 [2],54300 RLU (ug of protein)-1
same,Transfection efficiency,COS-7 [3],36500 RLU (ug of protein)-1
same,Transfection efficiency,COS-7 [4],17000 RLU (ug of protein)-1
same,Transfection efficiency,COS-7 [5],41100 RLU (ug of protein)-1
same,Transfection efficiency,COS-7 [6],94100 RLU (ug of protein)-1
same,Transfection efficiency,COS-7 [7],98100 RLU (ug of protein)-1
same,Transfection efficiency,COS-7 [8],108900 RLU (ug of protein)-1
CC(C)CCCC(C)[C@H]1CC[C@H]2C3CC=C4C[C@@H](OC(=O)CN(C)C)CCC4(C)[C@H]3CCC12C (stereo partly specified),Transfection efficiency,COS-7 [1],3100 RLU (ug of protein)-1
same,Transfection efficiency,COS-7 [2],2100 RLU (ug of protein)-1
same,Transfection efficiency,COS-7 [3],3400 RLU (ug of protein)-1
same,Transfection efficiency,COS-7 [4],6900 RLU (ug of protein)-1
same,Transfection efficiency,COS-7 [5],4000 RLU (ug of protein)-1
same,Transfection efficiency,COS-7 [6],1500 RLU (ug of protein)-1
same,Transfection efficiency,COS-7 [7],2000 RLU (ug of protein)-1
same,Transfection efficiency,COS-7 [8],1700 RLU (ug of protein)-1
CCCCCCCCCCCCCCOCC(COC(=O)CN(C)C)OCCCCCCCCCCCCCC (stereo unspecified),Transfection efficiency,COS-7 [1],1000 RLU (ug of protein)-1
same,Transfection efficiency,COS-7 [2],2500 RLU (ug of protein)-1
same,Transfection efficiency,COS-7 [3],600 RLU (ug of protein)-1
same,Transfection efficiency,COS-7 [4],3300 RLU (ug of protein)-1
same,Transfection efficiency,COS-7 [5],8000 RLU (ug of protein)-1
same,Transfection efficiency,COS-7 [6],5500 RLU (ug of protein)-1
same,Transfection efficiency,COS-7 [7],1700 RLU (ug of protein)-1
same,Transfection efficiency,COS-7 [8],600 RLU (ug of protein)-1
